Data published in patent US10253007B2, “Taxanes compounds, preparation method therefor, and uses thereof” (Jiangsu Tasly Diyi Pharmaceutical Co., Ltd., priority 2013, dated 2019).
Where two headings read alike, the source gives them in different places.

What was measured:
[1] = Caco-2 cell monolayer membrane transport assay; conditions: human; for Papp A→B: Caco-2, Papp A-B; for recovery: Caco-2, Recovery rate in mass
Text: (§3) Caco-2 Cell Monolayer Membrane Transport Assay
(§4) Human-derived colorectal adenocarcinoma cell line Caco-2 cell monolayer model was used to study the bidirectional transport of the target compounds from the apical (AP) side to the basolateral (BL) side and from BL side to AP side. HPLC was used for quantitative analysis to calculate transport parameters, apparent permeability coefficient (Papp) and the efflux ratio.

[2] = tested on: breast cancer cell line MCF-7; assay: IC50 values on breast cancer cell line MCF-7; format: cell-based; conditions: Homo sapiens, MCF7, 72 h
How it was run: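 MCF-7 human breast cancer cells exposed to compounds for 72 h, with paclitaxel as positive control. IC50 from three independent repeats with replicate wells.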

[3] = tested on: 16 cancer cell lines; assay: Preliminary cytotoxicity evaluation on 16 cancer cell lines (MTT); format: cell-based, human; conditions: preliminary screen at 1 μM, compared with paclitaxel
Text: (§1) 1. Cytotoxicity Assay Using Human Tumor Cell Lines
(§2) Paclitaxel was used as the positive drug.
In both cancer cell lines of A549 and B16, the cytotoxicity of the taxanes derivatives is slightly lower than that of the positive control drug.

[4] = tested on: A375 melanoma; assay: MTT assay, proliferation inhibition; format: cell-based; conditions: Homo sapiens, A-375, read-out: Proliferation inhibition rate
Text: as §1, §2

[5] = tested on: MCF-7 breast cancer; assay: MTT assay, proliferation inhibition; format: cell-based; conditions: Homo sapiens, MCF7, read-out: Proliferation inhibition rate
Text: as §1, §2

[6] = tested on: NCI-H460 non-small cell lung cancer; assay: MTT assay, proliferation inhibition; format: cell-based; conditions: Homo sapiens, read-out: Proliferation inhibition rate
Text: as §1, §2

[7] = tested on: K562 leukemia; assay: MTT assay, proliferation inhibition; format: cell-based; conditions: Homo sapiens, read-out: Proliferation inhibition rate
Text: as §1, §2

[8] = tested on: HeLa cervical cancer; assay: MTT assay, proliferation inhibition; format: cell-based; conditions: Homo sapiens, read-out: Proliferation inhibition rate
Text: as §1, §2

[9] = tested on: DU145 prostate cancer; assay: MTT assay, proliferation inhibition; format: cell-based; conditions: Homo sapiens, DU-145, read-out: Proliferation inhibition rate
Text: as §1, §2

[10] = tested on: B16 melanoma; assay: MTT assay, proliferation inhibition; format: cell-based; conditions: read-out: Proliferation inhibition rate
Text: as §1, §2

[11] = tested on: HCT 116 colon cancer; assay: MTT assay, proliferation inhibition; format: cell-based; conditions: Homo sapiens, read-out: Proliferation inhibition rate
Text: as §1, §2

[12] = tested on: A549 non-small cell lung cancer; assay: MTT assay, proliferation inhibition; format: cell-based; conditions: Homo sapiens, read-out: Proliferation inhibition rate
Text: as §1, §2

[13] = tested on: BGC-823 gastric cancer; assay: MTT assay, proliferation inhibition; format: cell-based; conditions: Homo sapiens, read-out: Proliferation inhibition rate
Text: as §1, §2

[14] = tested on: A2780 ovarian cancer; assay: MTT assay, proliferation inhibition; format: cell-based; conditions: Homo sapiens, read-out: Proliferation inhibition rate
Text: as §1, §2

[15] = tested on: HT29 colon cancer; assay: MTT assay, proliferation inhibition; format: cell-based; conditions: Homo sapiens, HT-29, read-out: Proliferation inhibition rate
Text: as §1, §2

[16] = MTT assay, proliferation inhibition; format: cell-based; conditions: Homo sapiens, LN-18 gastric cancer, read-out: Proliferation inhibition rate
Text: as §1, §2

[17] = tested on: LNCaP prostate cancer; assay: MTT assay, proliferation inhibition; format: cell-based; conditions: Homo sapiens, read-out: Proliferation inhibition rate
Text: as §1, §2

[18] = tested on: MDA-MB-436 breast cancer; assay: MTT assay, proliferation inhibition; format: cell-based; conditions: Homo sapiens, read-out: Proliferation inhibition rate
Text: as §1, §2

[19] = tested on: HL60 leukemia; assay: MTT assay, proliferation inhibition; format: cell-based; conditions: Homo sapiens, HL-60, read-out: Proliferation inhibition rate
Text: as §1, §2

[20] = tested on: Caco-2 cell monolayer; conditions: human
Text: as §3, §4

[21] = in vitro; conditions: human, Caco-2, Papp A-B, Mean
Text: as §3, §4

[22] = reported value for paclitaxel; cited from earlier work
[23] = Mean, Caco-2, A-B, mean of two samples
[24] = Sample-01, Caco-2, A-B, Sample-01
[25] = Sample-02, Caco-2, A-B, Sample-02

Q: For `CO[C@H]1C(=O)[C@]2(C)C=C[C@@H](O)[C@](CO)(OC(C)=O)[C@H]2[C@H](OC(=O)c2ccccc2)[C@]2(O)C[C@H](OC(=O)[C@H](O)[C@@H](NC(=O)OC(C)(C)C)c3ccccc3)C(C)=C1C2(C)C` [PCMI-44], which Papp B→A ([1]; Caco-2) is on record?
A: The Papp B→A was 27.2 ×10⁻⁶ cm/s.

Q: And the efflux ratio ([1]; Caco-2)?
A: Its efflux ratio is 4.76.

Q: And the Papp A→B ([1]; Caco-2 cell line (21 days), bidirectional transport, Table 5)?
A: Its Papp A→B is 5.72 ×10⁻⁶ cm/s.

Q: And the Papp A→B [1, 23]?
A: Its Papp A→B is 5.83 ×10⁻⁶ cm/s.

Q: What about the Papp A→B [1, 24] of the same molecule?
A: Its Papp A→B is 5.28 ×10⁻⁶ cm/s.

Q: And the Papp A→B [1, 25]?
A: The Papp A→B was 6.39 ×10⁻⁶ cm/s.

Q: What about the recovery [1, 23] of the same molecule?
A: Its recovery is 95.8%.

Q: What about the recovery [1, 24] of the same molecule?
A: Its recovery is 85.7%.

Q: What about the recovery [1, 25] of the same molecule?
A: The recovery was 106%.

Q: And the IC50 ([2]; read-out: MCF-7(IC50, nM))?
A: The IC50 was 10.9 ± 0.16 nM.

Q: What about the “cytotoxicity (in words)” value [3] of the same molecule?
A: The value was “remains good cytotoxicity”.

Q: And the inhibition at 1 µM [4]?
A: The inhibition at 1 µM was 93.9%.

Q: What about the inhibition at 1 µM [5] of the same molecule?
A: The inhibition at 1 µM was 95.2%.

Q: And the inhibition at 1 µM [6]?
A: The inhibition at 1 µM was 85.2%.

Q: What about the inhibition at 1 µM [7] of the same molecule?
A: The inhibition at 1 µM was 94.4%.

Q: What about the inhibition at 1 µM [8] of the same molecule?
A: The inhibition at 1 µM was 99.3%.

Q: And the inhibition at 1 µM [9]?
A: The inhibition at 1 µM was 89.2%.

Q: What about the inhibition at 1 µM [10] of the same molecule?
A: Its inhibition at 1 µM is 75.3%.

Q: And the inhibition at 1 µM [11]?
A: The inhibition at 1 µM was 67.1%.

Q: What about the inhibition at 1 µM [12] of the same molecule?
A: Its inhibition at 1 µM is 75.9%.

Q: And the inhibition at 1 µM [13]?
A: The inhibition at 1 µM was 90.8%.

Q: What about the inhibition at 1 µM [14] of the same molecule?
A: Its inhibition at 1 µM is 95.6%.

Q: And the inhibition at 1 µM [15]?
A: Its inhibition at 1 µM is 88.3%.

Q: And the inhibition at 1 µM [16]?
A: Its inhibition at 1 µM is 89.8%.

Q: And the inhibition at 1 µM [17]?
A: The inhibition at 1 µM was 86.9%.

Q: What about the inhibition at 1 µM [18] of the same molecule?
A: Its inhibition at 1 µM is 82.7%.

Q: And the inhibition at 1 µM [19]?
A: Its inhibition at 1 µM is 96.3%.

Q: For `CC(=O)O[C@H]1C(=O)[C@@]2(C)[C@H]([C@H](OC(=O)c3ccccc3)[C@]3(O)C[C@H](OC(=O)[C@H](O)[C@@H](NC(=O)c4ccccc4)c4ccccc4)C(C)=C1C3(C)C)[C@]1(OC(C)=O)CO[C@@H]1C[C@@H]2O` [Paclitaxel, reference compound], which “Papp A-B” value [20] is on record?
A: The value was 0.97 10^−6 cm/s.

Q: And the “Papp B-A” value [20]?
A: The value was 33.39 10^−6 cm/s.

Q: And the efflux ratio [20]?
A: The efflux ratio was 34.38.

Q: And the IC50 ([2]; MCF-7, exposure 72 hours, mean±SD of three independent experiments, read-out: MCF-7(IC50))?
A: The IC50 was roughly 7.05 nM.

Q: And the Papp A→B [21]?
A: The Papp A→B was 0.97 ×10⁻⁶ cm/s.

Q: And the inhibition at 1 µM [4]?
A: The inhibition at 1 µM was 96.2%.

Q: And the inhibition at 1 µM [5]?
A: Its inhibition at 1 µM is 94.2%.

Q: And the inhibition at 1 µM [6]?
A: The inhibition at 1 µM was 87.5%.

Q: What about the inhibition at 1 µM [7] of the same molecule?
A: The inhibition at 1 µM was 96.6%.

Q: And the inhibition at 1 µM [8]?
A: Its inhibition at 1 µM is 101%.

Q: And the inhibition at 1 µM [9]?
A: The inhibition at 1 µM was 90.6%.

Q: And the inhibition at 1 µM [10]?
A: The inhibition at 1 µM was 84%.

Q: And the inhibition at 1 µM [11]?
A: The inhibition at 1 µM was 70.4%.

Q: And the inhibition at 1 µM [12]?
A: Its inhibition at 1 µM is 81.6%.

Q: What about the inhibition at 1 µM [13] of the same molecule?
A: Its inhibition at 1 µM is 92.5%.

Q: What about the inhibition at 1 µM [14] of the same molecule?
A: Its inhibition at 1 µM is 96.7%.

Q: And the inhibition at 1 µM [15]?
A: The inhibition at 1 µM was 88.4%.

Q: What about the inhibition at 1 µM [16] of the same molecule?
A: Its inhibition at 1 µM is 94.5%.

Q: What about the inhibition at 1 µM [17] of the same molecule?
A: The inhibition at 1 µM was 87.1%.

Q: What about the inhibition at 1 µM [18] of the same molecule?
A: The inhibition at 1 µM was 83.1%.

Q: What about the inhibition at 1 µM [19] of the same molecule?
A: Its inhibition at 1 µM is 96.8%.

Q: And the “reported absolute oral bioavailability” value [22]?
A: The value was “less than 5%”.
